Patent US20050080024A1, “Nitric oxide donating derivatives for the treatment of cardiovascular disorders” (priority 2002, published 2005)
Where two headings read alike, the source gives them in different places.

Tests used:
C. albicans = test: Murine model for systemic candidiasis; assay type: in vivo; details: treated mice; fluconazole orally
Protocol: In addition, fungicidal compounds of the invention are efficacious in a murine model for systemic candidiasis. Fungicidal compounds of the invention prolong mean and median survival times of treated mice. The compounds are administered IP producing a similar survival pattern as that produced by the positive control compound fluconazole administered orally. […] Fungicidal compounds of the invention are also efficacious when administered orally to mice with an established systemic Candida infection. The compound given orally is similar in efficacy to fluconazole as measured by survival time, percent cures and kidney burden. Fungicidal compounds of the invention are also effective against systemic candidiasis caused by a strain of C. albicans resistant to fluconazole.

[1] = human study; cited from earlier work
[2] = rabbits; cited from earlier work
ApoA-1 gene = details: putatively mediated through Site S (PCT/CA03/01220); cited from earlier work

For `OC(Cn1cncn1)(Cn1cncn1)c1ccc(F)cc1F` [fluconazole], which “recoverable colonies from the kidneys” value (C. albicans) is on record?
The value was “reduce recoverable colonies from the kidneys”.

For `O=C1CC(c2ccc(O)cc2)Oc2cc(O)cc(O)c21` (stereo not shown) [naringenin, 5,7-dihydroxy-2-(4-hydroxy-phenyl)-chroman-4-one], which HDL [1] is on record?
The HDL was “increase HDL”.

What about the LDL [1] of the same compound?
Its LDL is “no effect”.

What about the triglycerides [1] of the same compound?
Its triglycerides is “no effect”.

And the HDL [2]?
Its HDL is “no effect upon HDL”.

And the LDL [2]?
Its LDL is “decrease LDL”.

With `Oc1ccc(/C=C/c2cc(O)cc(O)c2)cc1` [resveratrol, 5-[(E)-2-(4-hydroxy-phenyl)-vinyl]-benzene-1,3-diol] as the compound, how does the “transcription of apolipoprotein Al” value (ApoA-1 gene) read?
Its value is “increase the transcription of apolipoprotein Al”.
